We go through three compounds from patent US11319565B2, “Method for preparing lipoamino acids based on deep eutectic solvents” (Jiangnan University, priority 2019, dated 2022).

Data set [1] in a line: Substrate solubility in natural deep eutectic solvent (polarizing microscope). It counts as physicochemical. To be noted: in natural deep eutectic solvent C-Gly (choline chloride-glycerin), 60° C., 200 rpm. The procedure: 10 g of natural deep eutectic solvent (C-Gly) was accurately weighed and placed in a thermostatic shaking water bath at 60° C. After the temperature was constant, 10 mg of lauric acid was weighed and added thereto, and the mixture was shaken at 200 rpm for 30 min. Then a drop was taken out by a capillary and detected under a polarizing microscope. […] The final substrate solubility was calculated according to the following formula: S=mt×10/1000 (1).
Herein, S is the solubility and mt is the total addition amount of substrate.

Data set [2] can be described thus: CMC value determined by conductivity method. The note with it: aqueous solution. It counts as physicochemical. The procedure: The CMC value is determined by a conductivity method: The relationship between the conductivity of an ionic surfactant aqueous solution and the concentration is used to draw a ∧m-C^1/2 curve, and the CMC value is derived from the turning point of the curve.
∧m=K/C. The unit of ∧m is S·m^2/mol, and the unit of C is mol/L.
For a strong electrolyte, if the temperature is constant, the molar conductivity ∧m of the strong electrolyte solution has a linear relationship with the concentration of the solution c^1/2 in an extremely low concentration range. For a colloidal electrolyte, the conductivity and molar conductivity of a dilute solution change in the same way as the strong electrolyte.

`CCCCCCCCCCCC(=O)O` [lauric acid] came in with a solubility in data set [1] of 24.98 g/100 g.

In the case of `CCCCCCCCCCCC(=O)NCC(=O)O` [lauroyl glycine], the CMC value in data set [2] came to 0.0044 mol/L. Compound “Gemini lauroyl lysine [Gemini lauroyl amino acid]” came in with a CMC value in data set [2] of 0.0044 mol/L.
